Results as given in BindingDB's records for doi:10.1021/cb100060v (Binghamton University, 2010).

Molecular target: T1, Tubulin--tyrosine ligase (Homo sapiens, UniProt Q8NG68)
T1 sequence (Q8NG68 whole entry): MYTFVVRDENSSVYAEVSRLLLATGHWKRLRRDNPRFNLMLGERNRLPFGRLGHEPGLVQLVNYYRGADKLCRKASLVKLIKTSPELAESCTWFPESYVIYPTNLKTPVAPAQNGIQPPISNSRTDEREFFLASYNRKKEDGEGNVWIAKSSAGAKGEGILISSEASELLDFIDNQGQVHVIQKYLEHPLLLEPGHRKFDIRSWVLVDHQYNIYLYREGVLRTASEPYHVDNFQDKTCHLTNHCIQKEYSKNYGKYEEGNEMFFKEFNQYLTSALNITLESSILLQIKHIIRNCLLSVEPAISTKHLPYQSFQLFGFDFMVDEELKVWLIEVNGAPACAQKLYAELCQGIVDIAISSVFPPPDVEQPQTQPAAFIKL
Experiment: [3H]-Tyr Incorporation Assay
Conditions: pH 6.8; 37 °C
From the text: Inhibition of [3H]-L-tyrosine incorporation into tubulin by enzyme tubulin tyrosine ligase (TTL).

Ki | Structure (SMILES)
200 µM | [N-]=[N+]=Nc1cc(CC(N)C(=O)O)ccc1O (stereo not drawn) [3-Azidotyrosine]
300 µM | NC(Cc1ccc(O)c(C=O)c1)C(=O)O (stereo not drawn) [3-Formyltyrosine]
> 4000 µM | Nc1ccc(CC(N)C(=O)O)cc1 (stereo not drawn) [4-Aminophenylalanine]
